Read-outs that look alike come from different tables or passages of the source.

Experiment [1] concerns SARS-CoV-2. Briefly: Simultaneous Stellaris FISH and immunofluorescence: viral +strand gRNA and nucleocapsid protein (Np). Type of experiment: cell-based. To be noted: for restoration of viral gRNA levels in MTX-treated cells: 10011M thymidine or 1 mM formate added to 1 μM MTX; for restoration of viral gRNA levels in MTX-treated cells / rescue of translation of viral Np in MTX-treated cells: 48 hours; for rescue of translation of viral Np in MTX-treated cells: thymidine or 1 mM formate added to 1 μM MTX.

Experiment [2] concerns SARS-CoV-2 infected Vero E6 TMPRSS2+ cells. Briefly: Live cell number (cytopathic effect) quantification assay, Viral Tox-Glo. Type of experiment: cell-based, African Green Monkey. The conditions noted are these: for rescue of CPE in MTX-treated cells: thymidine or 1 mM formate added to 1 μM MTX, 48 hours. (Damage to the host cells serves as the signal in cytopathic effect assays.)

The subject of experiment [3] is SARS-CoV-2. In kind it is cell-based. The conditions noted are these: for rescue of virion production in MTX-treated cells: thymidine or 1 mM formate added to 1 μM MTX, 48 hours.
Experiment [4] deals with RNA flavivirus Zika. The conditions noted are these: cited from earlier work.

For `CCCCS(=N)(=O)CCC(N)C(=O)O` [BSO, L-buthionine-sulfoximine], in experiment [1], the Np levels result was “did not have any apparent effect” and the “viral gRNA levels” value is “did not have any apparent effect”.
Consider `O=C(COc1ccc(Cl)cc1)NC1CCC(NC(=O)COc2ccc(Cl)cc2)CC1` (centres unmarked) [ISRIB], for which, in experiment [1], the Np expression result is listed as “did not appreciably diminish” and the “viral gRNA expression” value is listed as “did not appreciably diminish”. Besides, the “number of live cells” value in experiment [2] was “increased the number of live cells”.
Regarding `C/C=C(\C)[C@H](O)[C@H](C)/C=C(C)/C=C/C/C(C)=C/Cc1nc(OC)c(OC)c(O)c1C` [Piericidin A], the secreted virus levels entry in experiment [3] was “did not have a major impact”; in experiment [3] (listed as PierA) it was “did not reduce viral replication”. Also, the Np levels entry in experiment [1] was “did not have a major impact”. In addition, the “viral gRNA levels” value in experiment [1] was “did not have a major impact”. Moreover, the “viral CPE” value in experiment [2] was “reduced viral CPE”.
Turning to `Cc1n[nH]c2c1C(c1cc(CO)cc(-c3ccccc3)c1)(C(C)C)C(C#N)=C(N)O2` (centres unmarked) [SHIN1], in experiment [3], the “reduction of infectious virus titer” value was approximately 1 log. Moreover, in experiment [1], the “+strand gRNA levels” value was “diminished” and the nucleoprotein levels result was “diminished”. For the same compound, in experiment [2], the “viral CPE” value was “induced resistance to viral CPE”.
Turning to `O=C[O-].[Na+]` [formate, sodium formate], the “reversal of SHIN1 effects (virus titer, gRNA, nucleoprotein, CPE)” value in experiment [3] (1 mM formate added to 10 μM SHIN1, 48 hours) is listed as “fully reversed”. Also, the “rescue of virion production in MTX-treated cells” value in experiment [3] is “unable to rescue”. Moreover, in experiment [1], the “restoration of viral gRNA levels in MTX-treated cells” value is “could only partially restore” and the “rescue of translation of viral Np in MTX-treated cells” value is “unable to rescue”. Further, the “rescue of CPE in MTX-treated cells” value in experiment [2] was “unable to rescue”.
With `O=c1[nH]cnc2nc[nH]c12` [hypoxanthine], in experiment [3], the “reversal of all effects of MTX (CPE, gRNA, Np, infectious virion)” value was “could be reversed”.
For `CN(Cc1cnc2nc(N)nc(N)c2n1)c1ccc(C(=O)N[C@@H](CCC(=O)O)C(=O)O)cc1` [methotrexate], the “replication of the RNA flavivirus Zika” value in experiment [4] is listed as “impair replication”. Besides, the “diminished secretion of infectious virion” value in experiment [3] is recorded as approximately 2 log. In experiment [1], the Np levels result is “reduced” and the “viral gRNA levels” value is reported as “reduced”. The “virus-induced CPE” value in experiment [2] is on record as “significantly blocked virus-induced CPE”.
Turning to `Cc1cn([C@H]2C[C@H](O)[C@@H](CO)O2)c(=O)[nH]c1=O` [thymidine], in experiment [3], the “rescue of virion production in MTX-treated cells” value is given as “unable to rescue”. Besides, in experiment [1], the “restoration of viral gRNA levels in MTX-treated cells” value is reported as “could only partially restore” and the “rescue of translation of viral Np in MTX-treated cells” value is “unable to rescue”. Besides, the “rescue of CPE in MTX-treated cells” value in experiment [2] is recorded as “unable to rescue”.

The record behind these values is patent US20240041851A1 (priority 2020, published 2024).
